According to patent US20090298868A1, “QUINOLINE COMPOUNDS AS MELANOGENESIS MODIFIERS AND USES THEREOF” (priority 2007, published 2009):
Counter-ions that a name gives are not always drawn. Like-named read-outs stand apart in the source and are kept apart here.

Test system: cultured murine melanocytes (melan-a)
Assay: Melanin assay in cultured murine melanocytes (melan-a)
Format: cell-based
Conditions: for inhibition at 1 µM / inhibition at 5 µM / IC50: Mus musculus; for inhibition at 1 µM / inhibition at 5 µM: 72 h; for inhibition at 1 µM: read-out: % Inh. @ 1 μM; for inhibition at 5 µM: read-out: % Inh. @ 5 μM
Procedure: The Spectrum Collection library consisting of 2000 drug compounds or natural products was screened to identify novel pigmentation inhibitors or stimulators in cultured murine melanocytes (melan-a). Compounds were dissolved in dimethylsulfoxide (DMSO) to a final concentration of 10 mM. Screening was performed with cultured melanocytes in 24-well plates followed by melanin assay (see below). A minimum change of 50% in melanin formation was established as significant for a pigmentation inhibitor or stimulator. DMSO was used as a negative control and the widely used depigmenting agent, hydroquinone, was used as a positive control on every plate. Primary screening was performed at a final concentration of 1 μM and potential candidates from the primary screening were reconfirmed in duplicate at final concentrations of 1 and 5 μM.
Melan-a cells were plated at 5×10^4 cells per well in 1 ml of culture media in 24-well plates the day before adding the library compounds. All compounds were added at the indicated final concentrations. Cells were harvested after 72 hours of incubation, and melanin assay was performed.
The hits identified herein were purchased from Sigma (St Louis, Mo.). […] These compounds were dissolved in dimethylsulfoxide (DMSO) to a final concentration of 10 mM, and were tested for their effect on melanin synthesis at the indicated final concentrations.
For the primary and secondary screening, cells were harvested and dissolved in 200 μL of 2N NaOH in 20% DMSO at 70° C. A 180-μl aliquot of the resulting solution was measured for absorbance at 490 nm.
The lysates were centrifuged at 14,000 rpm for 10 minutes at 4° C. BCA protein assay kit (Pierce) was used to measure the protein concentrations of the supernatants, and bovine serum albumin was used as a standard. The remaining pellets were incubated with 100 μl ethanol-ether (1:1) for 10 minutes at room temperature. After removing the ethanol-ether, the pellets were dissolved in 200 μL of 2N NaOH in 20% DMSO at 70° C. A 180-μL aliquot of the resulting solution was measured for absorbance at 490 nm. The melanin contents were normalized to the total amount of protein.

[1] = Melan-a, melanin formation, melan-a cells, 1 μM compound, 72 hours incubation
[2] = Melan-a, melanin formation, melan-a cells, 5 μM compound, 72 hours incubation
[3] = inhibition of melanin synthesis, melan-a cells, read-out: IC50
[4] = melanin formation, melan-a cells, 1 μM compound, 72 hours incubation
[5] = melanin formation, melan-a cells, 5 μM compound, 72 hours incubation

C=C[C@H]1C[N@@]2CCC1C[C@H]2[C@H](O)c1ccnc2ccc(OC)cc12 (single isomer, unassigned; (+)) [ID 14, (+)-3-Hydroxybutyric acid, quinine salt]
% Inh. @ 1 μM (melanin formation, melan-a cells, 1 μM compound, 72 hours incubation, 1 µM): 32.6%
% Inh. @ 5 μM (melanin formation, melan-a cells, 5 μM compound, 72 hours incubation, 5 µM): 61.3%

CCN(CC)Cc1ccc(Nc2ccnc3cc(Cl)ccc23)cc1O [ID 1, Amodiaquine Dihydrochloride]
inhibition at 1 µM [1]: 21%
inhibition at 5 µM [2]: 79%
IC50 [3]: 2600 ± 150 nM

CCN(CC)CCCC(C)Nc1ccnc2cc(Cl)ccc12 (centres unmarked) [ID 2, Chloroquine Diphosphate]
IC50 (Melan-a): 700 ± 180 nM
inhibition at 1 µM (Melan-a): 62%
inhibition at 5 µM (Melan-a): 70%

COc1cc(NC(C)CCCN)c2ncccc2c1 (centres unmarked) [ID 3, Primaquine Diphosphate]
IC50 (Melan-a): 6800 ± 370 nM
inhibition at 1 µM (Melan-a): 30%
inhibition at 5 µM (Melan-a): 47%

CCCCOc1cc(C(=O)NCCN(CC)CC)c2ccccc2n1 [ID 4, Dibucaine Hydrochloride]
IC50 [3]: 10200 ± 280 nM

C=C[C@H]1C[N@]2CC[C@H]1C[C@@H]2[C@@H](OC(=O)OCC)c1ccnc2ccc(OC)cc12 [ID 5, Quinine Ethyl Carbonate]
IC50 (Melan-a): 5100 ± 120 nM
inhibition at 1 µM (Melan-a): 15%
inhibition at 5 µM (Melan-a): 49%

C=C[C@H]1C[N@]2CC[C@H]1C[C@@H]2[C@@H](O)c1ccnc2ccc(OC)cc12 [ID 6, Quinidine Gluconate]
IC50 (Melan-a): 2700 ± 140 nM
inhibition at 1 µM (Melan-a): 41%
inhibition at 5 µM (Melan-a): 58%

C=C[C@H]1C[N@]2CC[C@H]1C[C@@H]2C(O)c1ccnc2ccc(OC)cc12 (some centres unmarked) [ID 7, Quinine Sulfate]
IC50 (Melan-a): 1500 ± 190 nM
inhibition at 1 µM (Melan-a): 31%
inhibition at 5 µM (Melan-a): 58%

CC[C@H]1CN2CCC1C[C@@H]2[C@@H](O)c1ccnc2ccc(OC)cc12 (some centres unmarked) [ID 8, Hydroquinidine]
inhibition at 1 µM [1]: 30.9%
inhibition at 5 µM [2]: 52.3%
IC50 (μM) (inhibition of melanin synthesis, melan-a cells): active

C=C[C@H]1C[N@]2CC[C@H]1C[C@H]2[C@H](O)c1ccnc2ccccc12 [ID 9, Cinchonidine]
inhibition at 1 µM [1]: 25%
inhibition at 5 µM [2]: 35.7%
IC50 [3]: 10900 ± 220 nM

C=C[C@H]1C[N@]2CC[C@H]1C[C@@H]2[C@H](O)c1ccnc2ccccc12 [ID 10, Cinchonine]
inhibition at 1 µM [1]: 18%
inhibition at 5 µM [2]: 30%
IC50 [3]: > 20000 nM

OC(c1cc(C(F)(F)F)nc2c(C(F)(F)F)cccc12)C1CCCCN1 (centres unmarked) [ID 11, Mefloquine]
inhibition at 1 µM [1]: 10%
inhibition at 5 µM [2]: 75%
IC50 [3]: 2000 ± 150 nM

C=C[C@H]1CN2CCC1CC2C(O)c1ccnc2ccc(OC)cc12 (some centres unmarked) [ID 12, Quinine]
inhibition at 1 µM [1]: 42.6%
inhibition at 5 µM [2]: 70.9%

C=C[C@H]1C[N@@]2CCC1C[C@H]2[C@H](O)c1ccnc2ccc(OC)cc12 [ID 13, Quinine Salicylate]
inhibition at 1 µM [1]: 33%
inhibition at 5 µM [2]: 60%

C=CC1CN2CCC1CC2[C@H](O)c1ccnc2ccc(OC)cc12 (some centres unmarked) [ID 16, Quinine hydrobromide]
inhibition at 1 µM [1]: 30.1%
inhibition at 5 µM [2]: 63.9%

C=C[C@H]1CN2CCC1CC2[C@@H](O)c1ccnc2ccc(OC)cc12 (some centres unmarked) [ID 17, Quinine hydrochloride dihydrate]
inhibition at 1 µM [1]: 27.5%
inhibition at 5 µM [2]: 61.5%

CC[C@H]1CN2CCC1CC2C(O)c1ccnc2ccc(OC)cc12 (some centres unmarked) [ID 18, Hydroquinine]
inhibition at 1 µM [1]: 37.3%
inhibition at 5 µM [2]: 71.7%

CC[C@H]1C[N@@]2CCC1C[C@H]2[C@H](O)c1ccnc2ccc(OC)cc12 [ID 19, Hydroquinine hydrobromide hydrate]
inhibition at 1 µM [1]: 26.8%
inhibition at 5 µM [2]: 67.4%

CC[C@H]1CN2CCC1CC2[C@@H](O)c1ccnc2ccccc12 (some centres unmarked) [ID 20, Hydrocinchonine]
inhibition at 1 µM (Melan-a): 24%
inhibition at 5 µM (Melan-a): 37.3%

C=C[C@H]1C[N+]2(Cc3ccccc3)CC[C@H]1C[C@H]2[C@H](O)c1ccnc2ccccc12.[Cl-] [ID 21, N- Benzylcinchonidinium chloride]
% Inh. @ 1 μM [4]: 9.6%
% Inh. @ 5 μM [5]: 16.4%

CC[C@H]1CN2CCC1CC2[C@@H](OC(=O)c1ccc(Cl)cc1)c1ccnc2ccc(OC)cc12 (some centres unmarked) [ID 22, Hydroquinidine 4-chlorobenzoate]
inhibition at 1 µM [1]: 10%
inhibition at 5 µM [2]: 25.5%

(−)-3-Hydroxybutyric acid, quinine salt [ID 15]
% Inh. @ 1 μM [4]: 34.4%
% Inh. @ 5 μM [5]: 63.9%
